In ChEMBL document CHEMBL1139746, “Enzyme inhibition potency enhancement by active site metal chelating and hydrogen bonding induced conformation-restricted cyclopropanecarbonyl derivatives” (Bioorg Med Chem Lett, 2006):

Key:
[1] = molecular target: 4-hydroxyphenylpyruvate dioxygenase (Sus scrofa, UniProt Q02110); test: Inhibition of pig HPPD
[2] = molecular target: Dihydroorotate dehydrogenase (quinone), mitochondrial (Rattus norvegicus, UniProt Q63707); test: Inhibition of rat DHODH
Dihydroorotate dehydrogenase (quinone), mitochondrial, sequence (Q63707 whole entry): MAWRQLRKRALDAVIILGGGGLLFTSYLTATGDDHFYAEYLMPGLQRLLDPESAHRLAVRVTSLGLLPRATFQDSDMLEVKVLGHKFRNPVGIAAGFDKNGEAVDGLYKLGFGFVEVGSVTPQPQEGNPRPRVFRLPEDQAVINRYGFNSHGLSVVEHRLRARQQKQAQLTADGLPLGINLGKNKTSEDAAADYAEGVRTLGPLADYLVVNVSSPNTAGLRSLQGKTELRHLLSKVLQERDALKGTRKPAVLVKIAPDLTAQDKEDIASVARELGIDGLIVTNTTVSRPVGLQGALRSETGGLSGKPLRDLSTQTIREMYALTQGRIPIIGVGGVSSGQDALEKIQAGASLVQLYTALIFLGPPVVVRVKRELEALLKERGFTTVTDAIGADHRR

4-hydroxyphenylpyruvate dioxygenase, sequence (Q02110 whole entry): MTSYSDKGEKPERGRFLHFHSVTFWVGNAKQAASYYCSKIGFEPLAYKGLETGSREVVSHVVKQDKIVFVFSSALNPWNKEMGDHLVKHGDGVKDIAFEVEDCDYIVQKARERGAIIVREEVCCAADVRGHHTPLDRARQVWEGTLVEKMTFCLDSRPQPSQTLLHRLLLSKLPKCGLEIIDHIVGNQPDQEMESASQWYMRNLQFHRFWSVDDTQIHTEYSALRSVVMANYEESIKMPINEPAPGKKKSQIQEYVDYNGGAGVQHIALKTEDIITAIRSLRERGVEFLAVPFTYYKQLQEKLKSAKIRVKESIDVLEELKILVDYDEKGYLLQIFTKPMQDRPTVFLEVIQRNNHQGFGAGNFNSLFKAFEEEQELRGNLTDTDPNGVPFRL

| SMILES | IC50 [1] [µM] | IC50 [2] [µM] |
| --- | --- | --- |
| O=C(c1c(O)c2ccccc2oc1=O)C1CC1 | 322 |  |
| O=C1CCCC(O)=C1C(=O)C1CCC1 | 21 |  |
| CC(C)/C(O)=C(\C#N)C(=O)Nc1ccc(C(F)(F)F)cc1 |  | 0.295 |
| O=C1CCCC(O)=C1C(=O)C1CCCC1 | 33.1 |  |
